Measurements published in patent US20100056508A1, “AMINE DERIVATIVES AND THEIR USE IN BETA-2-ADRENORECEPTOR MEDIATED DISEASES” (ASTRAZENECA AB, priority 2006, published 2010).
Structures can show the parent of a compound that is named as a salt.

Assays:
[1] = molecular target: T1, recombinant human adrenergic beta 1 receptors (Homo sapiens, UniProt P08588); assay: Adrenergic β1 selectivity assay, [125I]-Iodocyanopindolol binding to membranes; settings: inhibition of [125I]-Iodocyanopindolol binding, read-out: β1 bind pIC50 (converted)
T1 construct: purchased Euroscreen
In short: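 Displacement of [^125I]-Iodocyanopindolol (0.036 nM final) from human β1 receptor membranes, 2 hours at room temperature, pH 7.4 HEPES/EDTA/NaCl buffer. After filtration, scintillation counting; NSB set with 10 μM propranolol and subtracted. Four-parameter logistic fitting gave pIC50.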

[2] = molecular target: T2, recombinant human Dopamine Subtype D2s receptors (Homo sapiens, UniProt P14416); assay: Dopamine D2 selectivity assay, [3H]-spiperone binding to membranes; settings: inhibition of [3H]-spiperone binding, read-out: D2 bind pIC50 (converted)
T2 construct: purchased Perkin Elmer
In short: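 Human D2s receptor membranes incubated 2 h at room temperature with 0.16 nM [3H]-spiperone and test compound in HEPES buffer pH 7.4 (120 mM NaCl, 0.1% gelatin). Non-specific binding defined with 10 μM haloperidol; filter-bound radioactivity counted, pIC50 from four-parameter logistic fit.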

T2 sequence (P14416 1-414 isoform P14416-2): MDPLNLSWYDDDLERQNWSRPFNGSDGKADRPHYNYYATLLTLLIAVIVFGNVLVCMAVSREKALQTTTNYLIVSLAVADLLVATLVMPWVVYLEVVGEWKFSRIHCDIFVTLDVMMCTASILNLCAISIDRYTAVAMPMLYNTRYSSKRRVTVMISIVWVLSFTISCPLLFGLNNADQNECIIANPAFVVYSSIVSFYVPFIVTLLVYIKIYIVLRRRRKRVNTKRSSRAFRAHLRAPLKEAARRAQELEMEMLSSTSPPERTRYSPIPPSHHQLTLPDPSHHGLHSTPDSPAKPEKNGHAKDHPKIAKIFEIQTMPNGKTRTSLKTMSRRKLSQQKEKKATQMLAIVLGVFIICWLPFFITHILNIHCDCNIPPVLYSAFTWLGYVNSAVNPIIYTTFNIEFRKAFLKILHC
T1 sequence (P08588 whole entry): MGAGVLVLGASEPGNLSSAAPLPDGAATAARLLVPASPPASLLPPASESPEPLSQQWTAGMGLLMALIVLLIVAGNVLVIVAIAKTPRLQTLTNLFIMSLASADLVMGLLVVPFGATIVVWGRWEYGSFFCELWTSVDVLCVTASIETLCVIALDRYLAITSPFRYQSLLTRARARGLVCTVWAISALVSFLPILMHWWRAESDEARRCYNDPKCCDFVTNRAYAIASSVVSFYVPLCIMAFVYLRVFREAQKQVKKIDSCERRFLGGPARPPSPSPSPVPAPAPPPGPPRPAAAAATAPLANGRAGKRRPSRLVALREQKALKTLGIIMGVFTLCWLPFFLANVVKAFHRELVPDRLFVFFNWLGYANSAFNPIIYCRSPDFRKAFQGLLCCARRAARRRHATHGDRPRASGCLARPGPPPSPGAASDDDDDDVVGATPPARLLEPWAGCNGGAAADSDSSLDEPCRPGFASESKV

| IC50 [1] [µM] | IC50 [2] [nM] | SMILES |
| --- | --- | --- |
| 3.16 | 2000 | O=C1COc2c(CCNCCN(C(=O)CCOCCc3cccc(Cl)c3)C3CCCCC3)ccc(O)c2N1 [Example 77, 3-(3-Chlorophenethoxy)-N-cyclohexyl-N-(2-(2-(5-hydroxy-3-oxo-3,4-dihydro-2H-benzo[b][1,4]oxazin-8-yl)ethylamino)ethyl)propanamide trifluoroacetate] |
| > 10 | > 10000 | CC[C@@H](C)N(CCNCCc1ccc(O)c2[nH]c(=O)ccc12)C(=O)CCOCCc1ccccc1.Cl [Example 79, (R)—N-sec-Butyl-N-(2-(2-(8-hydroxy-2-oxo-1,2-dihydroquinolin-5-yl)ethylamino)ethyl)-3-phenethoxypropanamide hydrochloride] |
| > 10 | 2510 | CC(C)[C@@H](C)N(CCNCCc1ccc(O)c2[nH]c(=O)ccc12)C(=O)CCOCCc1ccccc1.Cl [Example 80, (R)—N-(2-(2-(8-Hydroxy-2-oxo-1,2-dihydroquinolin-5-yl)ethylamino)ethyl)-N-(3-methylbutan-2-yl)-3-phenethoxypropanamide hydrochloride] |
